The record followed here is patent publication US20080188654A1, “Compounds for treatment of inflammation, diabetes and related disorders” (Theracos, Inc., priority 2001, published 2008).

The test system of assay [1] is TNF-alpha. Kind of assay: Inhibition of LPS-induced TNF-alpha release by human monocytes. The class given is cell-based. The note with it: Monocyte, read-out: Percent Inhibition of TNF-alpha Release.
Assay [2] deals with PDE4 partially purified from human U-937 promonocytic cells. The assay is described as follows: Inhibition of PDE4 enzyme activity. The class given is biochemical.
For assay [3], the target named is T1, PDE3 partially purified from human platelets (Homo sapiens, UniProt Q14432).
T1 construct: PDE3 partially purified from human platelets were used; from tissue; host or cells: human platelets (partially purified enzyme)
T1 sequence (Q14432 whole entry): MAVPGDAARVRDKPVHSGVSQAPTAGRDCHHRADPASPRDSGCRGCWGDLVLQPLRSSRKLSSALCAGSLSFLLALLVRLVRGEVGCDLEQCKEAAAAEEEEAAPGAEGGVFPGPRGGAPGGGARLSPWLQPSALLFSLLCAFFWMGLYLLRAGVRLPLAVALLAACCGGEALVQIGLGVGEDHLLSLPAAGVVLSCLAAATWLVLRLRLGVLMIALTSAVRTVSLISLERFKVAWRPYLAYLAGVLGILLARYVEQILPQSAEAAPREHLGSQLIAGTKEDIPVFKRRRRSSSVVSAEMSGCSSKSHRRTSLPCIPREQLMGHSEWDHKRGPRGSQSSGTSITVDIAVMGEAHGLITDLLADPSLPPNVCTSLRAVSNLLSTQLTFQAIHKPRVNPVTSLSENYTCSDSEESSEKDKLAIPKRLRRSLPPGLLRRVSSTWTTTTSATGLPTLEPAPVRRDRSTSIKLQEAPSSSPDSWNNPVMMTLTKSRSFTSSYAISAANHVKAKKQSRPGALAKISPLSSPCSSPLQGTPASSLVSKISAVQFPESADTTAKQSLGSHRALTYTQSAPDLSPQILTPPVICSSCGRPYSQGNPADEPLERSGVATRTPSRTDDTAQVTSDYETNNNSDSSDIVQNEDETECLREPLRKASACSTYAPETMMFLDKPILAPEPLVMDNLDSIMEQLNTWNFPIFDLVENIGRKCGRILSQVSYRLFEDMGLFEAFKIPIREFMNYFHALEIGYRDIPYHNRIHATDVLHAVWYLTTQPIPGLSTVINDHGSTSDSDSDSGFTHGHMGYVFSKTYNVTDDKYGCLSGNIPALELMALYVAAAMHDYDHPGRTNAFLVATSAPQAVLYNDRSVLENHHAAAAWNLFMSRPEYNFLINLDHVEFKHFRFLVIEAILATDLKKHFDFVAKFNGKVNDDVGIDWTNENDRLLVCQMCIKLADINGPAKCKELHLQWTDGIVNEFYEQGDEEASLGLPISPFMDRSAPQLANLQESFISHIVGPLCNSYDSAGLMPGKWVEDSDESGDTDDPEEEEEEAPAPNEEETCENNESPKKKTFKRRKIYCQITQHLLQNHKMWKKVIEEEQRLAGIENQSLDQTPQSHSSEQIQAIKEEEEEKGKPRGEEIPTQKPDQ
The assay is described as follows: Inhibition of PDE3 enzyme activity. The class given is biochemical. Conditions: read-out: Percent Inhibition of Enzyme Activity.

The test system of the next assay is p44/42 MAP kinase. The assay is described as follows: Inhibition of phosphorylation of p44/42 MAP kinase in RAW 264.7 gamma NO(-) cells (Western blot). Conditions: for inhibition of LPS-induced phosphorylation of p44/42 MAP kinase: 10 ng/ml LPS. The class given is cell-based, mouse. On the technique in general: Immunoblotting shows a protein as a band on a membrane.

The test system of assay [4] is mouse mesenteric lymph node cells. The assay is described as follows: Inhibition of anti-CD3/anti-CD28 stimulated lymphocyte proliferation. The class given is cell-based.
The subject of a further assay is DBA/1J mice. Kind of assay: Collagen-induced arthritis in mice. The class given is in vivo, mouse.
Assay [5] has as its system TNF-alpha. The assay is described as follows: Inhibition of LPS-induced TNF-alpha production in mice. The class given is in vivo, mouse. Conditions: for Percent TNF Production (Mean ± SEM): plasma 1 h after LPS, vehicle = 100%, p < 0.05; for inhibition of LPS-induced TNF-alpha production in mice: 50 or 100 mg/kg oral.
Setting [6] is: high dose, 100 mg/kg oral twice daily 14 days.

pIC50: −log10 of the molar value. Some results are limits rather than exact numbers.

In general, inhibition refers to how much of the control response was suppressed. In general, pIC50 refers to −log10 of the IC50, conventionally taken in molar units. Low readings indicate a large IC50, high ones a small IC50. With `COc1cc(/C=C(/C(=O)N(C)C)c2ccc(Oc3ccc(CCC(=O)NC(N)=O)cc3)cc2)cc(OC)c1` [Compound 13, 3-(3,5-dimethoxyphenyl)-N,N-dimethyl-2-{4-[4-(3-oxo-3-ureido-propyl)-phenoxy]-phenyl}-acrylamide], the inhibition at 0.3 µM in the assay on TNF-alpha [1] turned out to be 15%. In addition, the inhibition at 1 µM was found to be 40% with TNF-alpha [1] and 20% in assay [3] (PDE3, 1 μM). Also, the inhibition at 3 µM in the assay with TNF-alpha [1] stood at 70%. For the same compound, the inhibition at 10 µM is 78% in the assay with TNF-alpha [1]; 52% in assay [3] (PDE3, 10 μM); roughly 50% in assay [4] (Mus musculus, Lymphocyte, 10 μM, stimulated by anti-CD3/anti-CD28 monoclonal antibodies). In addition, the inhibition at 30 µM worked out at 78% in the assay with TNF-alpha [1] and 55% in assay [3] (PDE3, 30 μM). Also, in assay [2] (PDE4), the pIC50 is greater than 6.00. Besides, the “Percent Inhibition of Enzyme Activity” value is on record as 85% in assay [2] (PDE4, 1 μM); 98% in assay [2] (PDE4, 10 μM); 102% in assay [2] (PDE4, 30 μM). The “inhibition of LPS-induced phosphorylation of p44/42 MAP kinase” value is recorded as “not” in the assay with p44/42 MAP kinase (10 μM) and “inhibited” with p44/42 MAP kinase (30 μM). Moreover, the “inhibition of LPS/IFN-gamma induced phosphorylation of p44/42” value in the assay with p44/42 MAP kinase (30 μM and 10 μM, LPS (10 ng/ml)/IFN-gamma (10 U/ml)) is listed as “inhibited LPS/IFN-gamma induced phosphorylation of p44/42 in a dose-dependent manner”. Besides, in assay [4] (10 μM + anti-CD3/anti-CD28 mAbs, 67 h, MTS/PMS, 505 nm), the “O.D. (Mean ± SD)” value stood at 0.578 ± 0.012.
For the compound `COc1cc(/C=C(/C(=O)N(C)C)c2ccc(Oc3ccc(CCC(N)=O)cc3)cc2)cc(OC)c1` [Compound 31, 2-{4-[4-(2-carbamoylethyl)-phenoxy]-phenyl}-3-(3,5-dimethoxyphenyl)-N,N-dimethylacrylamide], in the assay on TNF-alpha [1], the inhibition at 1 µM came out at 51%, the inhibition at 3 µM came out at 73%, the inhibition at 10 µM came to 83% and the inhibition at 30 µM was determined as 86%. In the assay with DBA/1J mice (setting [6]), the “arthritis clinical score (severity)” value is recorded as “prevented the increase in severity”; the “histology of hind limbs” value is “reduction in incidence and severity of pannus formation, inflammation cell infiltration and bone/cartilage damage”. Further, the “histology of hind limbs” value in the assay with DBA/1J mice (low dose, 40 mg/kg oral twice daily 14 days) was “marked chronic inflammation of synovium with pannus formation and destruction of bone and cartilage”. In the assay on DBA/1J mice (low dose, 40 mg/kg oral twice daily 14 days, compared with vehicle), the “arthritis clinical score (severity)” value was “no apparent effect”. Also, the “Percent TNF Production (Mean ± SEM)” value in the assay on TNF-alpha [5] (50 mg/kg oral) was 68 ± 11%. Besides, the “Percent TNF Production (Mean ± SEM)” value with TNF-alpha [5] (100 mg/kg oral) stood at 53 ± 20%. The “inhibition of LPS-induced TNF-alpha production in mice” value in the assay with TNF-alpha [5] is “significantly inhibited”.
On to `CCOC(=O)CCc1ccc(Oc2ccc(/C(=C\c3cc(OC)cc(OC)c3)C(=O)N(C)C)cc2)cc1` [Compound 37, 3-(4-{4-[2-(3,5-dimethoxyphenyl)-1-dimethylcarbamoylvinyl]-phenoxy}-phenyl)-propionic acid ethyl ester], for which, in the assay on TNF-alpha [1], the inhibition at 1 µM amounted to 17%, the inhibition at 3 µM is 38%, the inhibition at 10 µM was found to be 65% and the inhibition at 30 µM stood at 78%.
As to `COc1cc(/C=C(/C(=O)N(C)C)c2ccc(NC(=O)c3cccc(O)c3)cc2)cc(OC)c1` [Compound 44, N-{4-[2-(3,5-dimethoxyphenyl)-1-dimethylcarbamoylvinyl]-phenyl}-3-hydroxybenzamide], in the assay on TNF-alpha [1], the inhibition at 0.3 µM stood at 32%, the inhibition at 3 µM was 67% and the inhibition at 30 µM was determined as 91%.
Consider `COc1cc(/C=C(/C(=O)N(C)C)c2ccc(O)cc2)cc(OC)c1` [Compound 49, 3-(3,5-dimethoxyphenyl)-2-(4-hydroxyphenyl)-N,N-dimethylacrylamide], for which, in the assay on TNF-alpha [1], the inhibition at 3 µM was 14%, the inhibition at 10 µM is 47% and the inhibition at 30 µM was 54%.
As for `CC(=O)NC(=O)CCc1ccc(Oc2ccc(/C(=C\c3ccc(F)cc3)C(=O)N(C)C)cc2)cc1` [Compound 56, 2-{4-[4-(3-acetylamino-3-oxopropyl)-phenoxy]-phenyl}-3-(4-fluorophenyl)-N,N-dimethylacrylamide], in the assay with TNF-alpha [1], the inhibition at 0.3 µM amounted to 1%, the inhibition at 3 µM was 6% and the inhibition at 30 µM turned out to be 54%.
The matching figures for `COc1cc(/C=C(/C(=O)N(C)C)c2ccc(Oc3ccc(CC(C(N)=O)C(N)=O)cc3)cc2)cc(OC)c1` [Compound 59, 2-(4-{4-[2-(3,5-dimethoxyphenyl)-1-dimethylcarbamoylvinyl]-phenoxy}-benzyl)-malonamide]: 27%, 69% and 80%.
The matching figures for `COc1cc(/C=C(/C(=O)N(C)C)c2ccc(Oc3ccccn3)cc2)cc(OC)c1` [Compound 66, 3-(3,5-dimethoxyphenyl)-N,N-dimethyl-2-[4-(pyridin-2-yloxy)-phenyl]-acrylamide]: 27%, 53% and 84%.
The matching figures for `COc1cc(/C=C(/C(=O)N(C)C)c2ccc(NC(=O)c3ccccc3)cc2)cc(OC)c1` [Compound 67, N-{4-[2-(3,5-dimethoxyphenyl)-1-dimethylcarbamoylvinyl]-phenyl}-benzamide]: 40%, 62% and 89%.
`CCOC(=O)CCc1ccc(Oc2ccc(C(=Cc3ccc4c(c3)OCO4)C(=O)N(C)C)cc2)cc1` [Compound 69, 3-{4-[4-(2-benzo[1,3]dioxol-5-yl-1-dimethylcarbamoylvinyl)-phenoxy]-phenyl}-propionic acid ethyl ester]: in the assay on TNF-alpha [1], the inhibition at 0.3 µM worked out at 1%, the inhibition at 3 µM was found to be 22% and the inhibition at 30 µM was 50%.
Turning to `CN(C)C(=O)/C(=C/c1cccnc1)c1ccc(Oc2ccc(CC(C(N)=O)C(N)=O)cc2)cc1` [Compound 71, 2-{4-[4-(1-dimethylcarbamoyl-2-pyridin-3-ylvinyl)-phenoxy]-benzyl}-malonamide], in the assay on TNF-alpha [1], the inhibition at 0.3 µM was determined as 20%, the inhibition at 3 µM is 47% and the inhibition at 30 µM stood at 65%.
The matching figures for `CN(C)C(=O)/C(=C/c1cccnc1)c1ccc(Oc2ccc(CCC(=O)NC(N)=O)cc2)cc1` [Compound 73, N,N-dimethyl-2-{4-[4-(3-oxo-3-ureidopropyl)-phenoxy]-phenyl}-3-pyridin-3-yl-acrylamide]: 30%, 62% and 81%.
With `CN(C)C(=O)/C(=C/c1cccnc1)c1ccc(Oc2ccc(CCC(N)=O)cc2)cc1` [Compound 77, 2-{4-[4-(2-carbamoyl-ethyl)-phenoxy]-phenyl}-N,N-dimethyl-3-pyridin-3-yl-acrylamide], the entries for the “Percent TNF Production (Mean ± SEM)” value with TNF-alpha [5] (50 mg/kg oral) and in the assay with TNF-alpha [5] (100 mg/kg oral) were 54 ± 10% and 67 ± 20%, respectively. For the same compound, the “inhibition of LPS-induced TNF-alpha production in mice” value in the assay with TNF-alpha [5] was “significantly inhibited”.
Regarding `CN(Cc1cnc2nc(N)nc(N)c2n1)c1ccc(C(=O)N[C@@H](CCC(=O)O)C(=O)O)cc1` [Methotrexate, methotrexate, reference compound], the “Percent TNF Production (Mean ± SEM)” value with TNF-alpha [5] (10 mg/kg oral) is 61 ± 5%.
